In US7312246B2, “Proteomimetic compounds and methods” (Yale University, priority 2001, dated 2007):
Values belong to the compound of their own block, whether it stands above or below them.

How the values were obtained:
[1] = Solubility in buffer; format: physicochemical; conditions: buffer with <1% DMSO
Description: For synthetic simplicity we changed the indole of Trp800 to phenyl and removed the hydroxyl of Thr803. Using Negishi couplings of differently substituted phenyltriflates, we prepared terphenyl a as a mimic of the calmodulin binding face of smMLCK.

[2] = molecular target: T1, calmodulin (CaM) (Homo sapiens, UniProt P0DP23); assay: Avidin-based affinity resin derivatized with biotinylated CaM: retention of compound; format: binding
Description: Discrete complex formation to CaM was indicated by the release of a from the column, as monitored by HPLC, on elution with […] biotin. […] To amplify the binding event between CaM and a, an enzymatic assay was also employed.

[3] = molecular target: T1, calmodulin (CaM); assay: Antagonism of CaM activation of phosphodiesterase (PDE), monitored by hydrolysis of mant-cGMP; format: biochemical; conditions: for IC50: 13.9 nM CaM, 50 mu/ml PDE, 8 μM mant-cGMP, pH 7.0, read-out: IC50, inhibition of CaM activation of PDE
Protocol: 13.9 nM CaM, 50 mu/ml PDE, 8 μM mant-cGMP, 10 mM Mops, 0.5 mM MgCl2, 90 mM KCl, 0.73 mM CaCl2, 0.2% DMSO, pH 7.0.

[4] = molecular target: T1, calmodulin (CaM); assay: Polyacrylamide gel permeation chromatography (6 kD cutoff) with and without CaM; format: binding; conditions: 70 μM in buffer
[5] = molecular target: T2, gp41 core model (N36/C34 six helix bundle) (Human immunodeficiency virus type 1 group M subtype B, UniProt P04578); format: binding, HIV-1; conditions: 10 μM gp41 core model, 50 mM PBS, 150 mM NaCl, pH 7.0, 4° C.
T2 construct: two peptides (N36 and C34), from the N and C heptad repeat regions of gp41; purchased HHMI Biopolymer/Keck Foundation Biotechnology Resource Center, Yale University School of Medicine; host or cells: synthetic peptides
Description: Spectra were corrected by the subtraction of a blank corresponding to the solvent composition of each sample.

[6] = molecular target: Bcl-xL (Homo sapiens, UniProt Q07817); assay: Fluorescence polarization assay: displacement of fluorescein-labeled 16-mer Bak-peptide from Bcl-xL; format: binding; conditions: for binding affinity for Bcl-xL (in words): compared with m
Protocol: Based on these structural requirements we designed a series of terphenyl molecules (k-n) containing alkyl or aryl substituents on the three ortho positions (to mimic the key i, i+3, and i+7 groups in Bak or Bad) and carboxylic acid substituents on either end (to mimic the additional ion pair) (FIG. 17). The binding affinity of these molecules for Bcl-xL was assessed by a fluorescence polarization assay using fluoresceine-labeled 16-mer Bak-peptide. Displacement of this probe through competitive binding of the terphenyl into the hydrophobic cleft of BCl-xL would lead to a decrease in its fluorescence polarization which in turn could be related to the known affinity of the 16-mer Bak/Bcl-xL complex.

T2 sequence (P04578 546-581): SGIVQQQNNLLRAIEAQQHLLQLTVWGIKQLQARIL
Bcl-xL, sequence (Q07817 whole entry): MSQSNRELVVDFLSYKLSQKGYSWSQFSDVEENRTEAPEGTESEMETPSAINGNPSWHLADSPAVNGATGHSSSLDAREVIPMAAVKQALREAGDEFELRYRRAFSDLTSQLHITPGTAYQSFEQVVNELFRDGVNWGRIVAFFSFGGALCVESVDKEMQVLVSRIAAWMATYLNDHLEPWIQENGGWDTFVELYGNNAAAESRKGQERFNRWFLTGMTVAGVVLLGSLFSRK

Compound: CCc1cc(-c2ccc(OCC(=O)O)cc2C(C)C)ccc1-c1cccc(Cc2ccccc2)c1.N [48.NH4, Ammonium (3-benzyl-2′-ethyl-2″-isopropyl-[1,1′:4′,1″]terphenyl-4″-yloxy)-acetate]
solubility in buffer [1]: surprisingly soluble in buffer with <1% DMSO

Compound: CCc1cc(-c2ccc(OCC(=O)O)cc2C(C)C)ccc1-c1cccc(Cc2ccccc2)c1 [a, (3-Benzyl-2′-ethyl-2″-isopropyl-[1,1′:4′,1″]terphenyl-4″-yloxy)-acetic acid]
retention on avidin affinity resin derivatized with biotinylated CaM ([2]; CaM-derivatized resin): retention of the terphenyl on the column
retention on underivatized avidin resin (control experiment) ([2]; underivatized avidin resin): no observable retention
IC50 [3]: 800 nM
inhibitory potency, fold less than RS20 ([3]; relative to 20-mer peptide RS20): 10 fold

IC50 [3]: 9 nM
potency, fold improvement over RS20 ([3]; relative to helical peptide RS20): 8 fold
Compound: CCc1cc(-c2ccc(OCC(=O)O)cc2C(C)C)ccc1-c1cccc(Cc2cccc3ccccc23)c1 [b, (2′-Ethyl-2″-isopropyl-3-naphthalen-1-ylmethyl-[1,1′:4′,1″]terphenyl-4″-yloxy)-acetic acid]

IC50 [3]: 20 nM
Compound: CCc1cc(-c2ccc(OCC(=O)O)cc2C(C)C)ccc1-c1cccc(Cc2ccc3ccccc3c2)c1 [c, (2′-Ethyl-2″-isopropyl-3-naphthalen-2-ylmethyl-[1,1′:4′,1″]terphenyl-4″-yloxy)-acetic acid]

Compound: CC(C)Cc1cc(-c2ccc(-c3ccc(CCCN)cc3CC(C)C)cc2C(C)C)ccc1OCCN.Cl.Cl [g, 3-[4″-(2-aminoethoxy)-2,3″-diisobutyl-3′-isopropyl-1,1′:4′,1″-terphenyl-4-yl]propan-1-amine dihydrochloride]
behaviour on gel permeation column, compound alone ([4]; alone): retained on the column
behaviour on gel permeation column, mixed with one equivalent of CaM ([4]; one equivalent of CaM): passed through
effect on CD spectrum of gp41 core model (helicity of the hexameric bundle) [5]: little effect on the protein CD spectrum even at high concentrations

Compound: O=C(O)CCc1ccc(-c2ccc(OCC(=O)O)cc2)cc1 [i, 3-[4′-(carboxymethoxy)-1,1′-biphenyl-4-yl)propanoic acid]
effect on CD spectrum of gp41 core model (helicity of the hexameric bundle) [5]: little effect on the protein CD spectrum even at high concentrations

Compound: CC(C)Cc1cc(CCC(=O)O)ccc1-c1ccc(-c2ccc(OCC(=O)O)c(Cc3ccccc3)c2)c(Cc2ccccc2)c1 [j, 3-(3′,3″-dibenzyl-4″-(carboxymethoxy)-2-isobutyl-1,1′:4′,1″-terphenyl-4-yl)propanoic acid]
effect on CD spectrum of gp41 core model (helicity of the hexameric bundle) [5]: modest enhancement in activity compared to f

binding affinity for Bcl-xL (in words) [6]: less binding affinity
Compound: CC(C)Cc1cc(-c2ccc(-c3ccc(CCC(=O)O)cc3CC(C)C)cc2Cc2ccccc2)ccc1OCC(=O)O [l, 3-(3′-Benzyl-4″-(carboxymethoxy)-2,3″-diisobutyl-1,1′4″1″-terphenyl-4-yl)propanoic acid]

Kd ([6]; related to known affinity of 16-mer Bak/Bcl-xL complex, read-out: KD-value, binding to Bcl-xL): 114 nM
Compound: CC(C)Cc1cc(-c2ccc(-c3ccc(CCC(=O)O)cc3CC(C)C)cc2Cc2cccc3ccccc23)ccc1OCC(=O)O [m, 3-(4-(Carboxymethoxy)-3,2″-diisobutyl-2′-naphthalen-1-ylmethyl-[1,1′:4′,1″]-terphenyl-4″-yl)propionic acid]

binding affinity for Bcl-xL (in words) [6]: significant loss in binding affinity
Compound: CC(C)Cc1cc(CCC(=O)O)ccc1-c1ccc(-c2ccc(OCC(=O)O)c(Cc3cccc4ccccc34)c2CC(C)C)cc1 [n, 3-(4-(Carboxymethoxy)-2,2″-diisobutyl-3-naphthalen-1-ylmethyl-[1,1′:4′,1″]-terphenyl-4″-yl)propionic acid]

Compound: Bis methyl 3-(1,1′:4′,1″-terphenyl-4,4″-yl)propanoic acid
effect on CD spectrum of gp41 core model (helicity of the hexameric bundle) [5]: little effect on the protein CD spectrum even at high concentrations
